“And” between values parts separate entries of the source, which are not always exact repeats. Equal entries are not always repeated. Where two headings read alike, the source gives them in different places.
Target: SARS-CoV-2 NSP3 Mac1 (Severe acute respiratory syndrome coronavirus 2, UniProt P0DTD1)
Format: binding
Settings: for Refined occupancy: ligand occupancy after refinement (phenix.refine)
[1] = PanDDA event map 1-BDC, crystal soak, Compound_concentration 100 mM, PanDDA run dmso_34 or nohits_35 per dataset
[2] = PanDDA event map, 1 minus background density correction, crystal soaking of Mac1
[3] = crystal soak, Compound_concentration 100 mM, Echo dispense 40 nl, PanDDA run dmso_34 or nohits_35 per dataset
[4] = ligand modeled in this dataset, crystal soak, Compound_concentration 100 mM
[5] = PanDDA event map, crystal soak, Compound_concentration 100 mM, Echo_dispense_volume 40 nl
[6] = crystal soak, Compound_concentration 100 mM, Echo_dispense_volume 40 nl, PanDDA run (background map) dmso_34, nohits_35 or nohits_62
[7] = ligand modeled, crystal soak, Compound_concentration 100 mM, Echo_dispense_volume 40 nl
[8] = PanDDA 1-BDC value of the event, crystal soak, compound concentration 100 mM, per dataset
[9] = PanDDA event map, 1-BDC of the hit dataset, crystal soak, compound concentration 100 mM
[10] = crystal soak, compound concentration 100 mM, per dataset
[11] = PanDDA 1-BDC (background density correction) of the event, crystal soak 100 mM, PanDDA run dmso_34
[12] = crystal soak, compound concentration 100 mM, PanDDA run dmso_34, series docking_lead-like_1
[13] = PanDDA event map background density correction, crystal soak, compound concentration 100 mM
[14] = ligand modeled in the crystal structure, crystal soak, compound concentration 100 mM
[15] = PanDDA 1-BDC of the event, compound stock 100 mM, Echo dispense volume 80 nl
[16] = crystal soak, compound stock 100 mM, Echo dispense volume 80 nl
[17] = ligand modeled in the crystal structure, crystal soak 100 mM, PanDDA run dmso_34
[18] = ligand modeled from this dataset, compound concentration 100 mM
[19] = ligand modeled in the crystal structure, crystal soak, compound concentration 100 mM, per dataset

## O=C(Nc1ccc(C(=O)N[C@@H]2c3cccc(O)c3C[C@H]2C(=O)O)cc1)NC1CC1 [Compound E2160]
[1]
  1-BDC: 0.08 and 0.1
[2]
  1-BDC (PanDDA): 0.1
[3]
  PanDDA hit?: TRUE
[4]
  Modeled?: TRUE
Crystal soaking of Mac1
  Refined occupancy: 20

## CCC(=O)Nc1nc(C)c(S(=O)(=O)Nc2cccc(C#N)c2)s1 [Compound Z0611]
[2]
  1-BDC (PanDDA): 0.33
[5]
  1-BDC: 0.33
[6]
  PanDDA hit?: TRUE
[7]
  Modeled?: TRUE
Crystal soaking of Mac1
  Refined occupancy: 66

## Nc1ncc(S(=O)(=O)N2CC(F)(F)C[C@H]2C(=O)O)cn1 [Compound Z1314]
[8]
  1-BDC: 0.49
[9]
  1-BDC: 0.3
[2]
  1-BDC: 0.19
[10]
  PanDDA hit?: TRUE
Crystal soaking of Mac1
  Refined occupancy: 38

## CC(C)c1noc(CCc2nc(-c3ccnc4[nH]ccc34)no2)n1 [Compound Z1347]
[11]
  1-BDC: 0.03
[12]
  PanDDA hit?: TRUE

## Nc1ccc(C(=O)N2CC(c3nnc(S)o3)C2)c(Cl)n1 [Compound Z1366]
[13]
  1-BDC: 0.1

## O=C(O)CC1CC(CNC(=O)c2cncc3sccc23)C1 (centres unmarked) [Compound Z1558]
[2]
  1-BDC (PanDDA): 0.24
[5]
  1-BDC: 0.24
[6]
  PanDDA hit?: TRUE
[7]
  Modeled?: TRUE
Crystal soaking of Mac1
  Refined occupancy: 48
What was observed in density instead of the vendor structure
  Comment (ligand modelled in the crystal structure): C4 substituted thiophene

## CC(Cc1ccco1)C(=O)N[C@@H](CC(=O)O)c1ccc2c(c1)OCO2 (some centres unmarked) [Compound Z1877]
[13]
  1-BDC: 0.15
[2]
  1-BDC (PanDDA): 0.15
[14]
  Modeled?: TRUE
Crystal soaking of Mac1
  Refined occupancy: 30

## CC1(C)CN(c2ncnc3[nH]c4ccccc4c23)CC(CC(=O)O)O1 (centres unmarked) [Compound Z2215]
PanDDA 1-BDC of the event, compound stock 100 mM, Echo dispense volume 40 nl
  1-BDC: 0.05
[1]
  1-BDC: 0.04
[2]
  1-BDC (PanDDA): 0.05
[3]
  PanDDA hit?: TRUE
Crystal soak, compound stock 100 mM, Echo dispense volume 40 nl
  PanDDA hit?: TRUE
Ligand modeled in structure, compound stock 100 mM, Echo dispense volume 40 nl
  Modeled?: TRUE
Crystal soaking of Mac1
  Refined occupancy: 10

## Cc1oc(CNc2ncnc3[nH]c4ccccc4c23)cc1C(=O)O [Compound Z3124]
[13]
  1-BDC: 0.09
[2]
  1-BDC (PanDDA): 0.09
[14]
  Modeled?: TRUE
Crystal soaking of Mac1
  Refined occupancy: 18

## CC(F)(F)c1cncc(C(=O)NC(Cc2cncc(Br)c2)C(=O)O)c1 (centres unmarked) [Compound Z3140]
[13]
  1-BDC: 0.1
[2]
  1-BDC (PanDDA): 0.1
[14]
  Modeled?: TRUE
Crystal soaking of Mac1
  Refined occupancy: 20

## O=C(NS(=O)(=O)Cc1ccc(Br)c(F)c1)c1cnn2ccccc12 [Compound Z3209]
[2]
  1-BDC (PanDDA): 0.38
[5]
  1-BDC: 0.38
[6]
  PanDDA hit?: TRUE
[7]
  Modeled?: TRUE
Crystal soaking of Mac1
  Refined occupancy: 76

## O=C(CCCCc1ccc(Br)cc1)NC(CCc1cn[nH]c1)C(=O)O (centres unmarked) [Compound Z3213]
[13]
  1-BDC: 0.11

## O=C(O)CC(NC(=O)c1cc(F)cc2[nH]cnc12)c1ccc(Br)cc1 (centres unmarked) [Compound Z3722]
[2]
  1-BDC (PanDDA): 0.29
[5]
  1-BDC: 0.29
[6]
  PanDDA hit?: TRUE
[7]
  Modeled?: TRUE
Crystal soaking of Mac1
  Refined occupancy: 40

## O=C(O)C(F)(F)F.O=C(O)C1CN(c2ncnc3[nH]c4ccccc4c23)CC12CCC2 (centres unmarked) [Compound Z4706]
[15]
  1-BDC: 0.21
[1]
  1-BDC: 0.17
[2]
  1-BDC (PanDDA): 0.14
[5]
  1-BDC: 0.14
[3]
  PanDDA hit?: TRUE
[6]
  PanDDA hit?: TRUE
[16]
  PanDDA hit?: TRUE
[7]
  Modeled?: TRUE
Crystal soaking of Mac1
  Refined occupancy: 28

## O=C1OCCN1C1CCN(c2ncnc3[nH]c4cc(F)ccc4c23)C1 (centres unmarked) [Compound Z5107]
[15]
  1-BDC: 0.09
[1]
  1-BDC: 0.06
[2]
  1-BDC (PanDDA): 0.06
[5]
  1-BDC: 0.06
[3]
  PanDDA hit?: TRUE
[6]
  PanDDA hit?: TRUE
[16]
  PanDDA hit?: TRUE
[7]
  Modeled?: TRUE
Crystal soaking of Mac1
  Refined occupancy: 12

## O=C(Cc1ccc(-n2cccn2)cc1)OCC1CCCNC1=O (centres unmarked) [Compound Z5505]
PanDDA event map background density correction, crystal soak, Compound_concentration 100 mM, PanDDA run dmso_34
  1-BDC: 0.08
[2]
  1-BDC: 0.08
Crystal soak, Compound_concentration 100 mM, Echo dispense 40 nl, PanDDA run dmso_34
  PanDDA hit?: TRUE
Ligand modeled in crystal structure, crystal soak, Compound_concentration 100 mM, PanDDA run dmso_34
  Modeled?: TRUE
Crystal soaking of Mac1
  Refined occupancy: 16

## O=C(O)Cc1cccc(CNC(=O)c2ncnc3ccsc23)c1 [Compound Z5712]
[2]
  1-BDC (PanDDA): 0.32
[5]
  1-BDC: 0.32
[6]
  PanDDA hit?: TRUE
[7]
  Modeled?: TRUE
Crystal soaking of Mac1
  Refined occupancy: 64

## Nc1ncnc2c1ncn2CCCc1ccsc1 [Compound Z5972]
[11]
  1-BDC: 0.16
[12]
  PanDDA hit?: TRUE

## CNc1cc(-c2noc(CN3CCCC3=O)n2)ncn1 [Compound Z6028]
[11]
  1-BDC: 0.05
[12]
  PanDDA hit?: TRUE

## O=C(O)CC1CCN(c2ncnc3[nH]c4ccccc4c23)CCC1(F)F (centres unmarked) [Compound Z6423]
[1]
  1-BDC: 0.07
[3]
  PanDDA hit?: TRUE

## O=C(O)Cc1ccc(CNC(=O)c2ccnc3ccsc23)cc1 [Compound Z6625]
[2]
  1-BDC (PanDDA): 0.12
[5]
  1-BDC: 0.12
[6]
  PanDDA hit?: TRUE
[7]
  Modeled?: TRUE
Crystal soaking of Mac1
  Refined occupancy: 24

## COc1cncc(C(=O)NCCNC(=O)c2ncccc2O)c1 [Compound Z6634]
[2]
  1-BDC (PanDDA): 0.14
[5]
  1-BDC: 0.14
[6]
  PanDDA hit?: TRUE
[7]
  Modeled?: TRUE
Crystal soaking of Mac1
  Refined occupancy: 28

## O=C(NC1C=CC(C(=O)O)C1)c1ncnc2sccc12 (centres unmarked) [Compound Z6645]
[13]
  1-BDC: 0.4
[2]
  1-BDC (PanDDA): 0.4
[14]
  Modeled?: TRUE
Crystal soaking of Mac1
  Refined occupancy: 80

## CC(=O)Nc1nc(C)c(S(=O)(=O)Nc2ccc(C)c(C#N)c2)s1 [Compound Z6707]
[2]
  1-BDC (PanDDA): 0.23
[5]
  1-BDC: 0.23
[6]
  PanDDA hit?: TRUE
[7]
  Modeled?: TRUE
Crystal soaking of Mac1
  Refined occupancy: 46

## Cc1oc(C(N)=O)cc1S(=O)(=O)Nc1ccc(Br)c(C#N)c1 [Compound Z6708]
[13]
  1-BDC: 0.26
[2]
  1-BDC (PanDDA): 0.26
[14]
  Modeled?: TRUE
Crystal soaking of Mac1
  Refined occupancy: 52

## Cn1ncc2ncnc(NS(=O)(=O)Cc3ccc(CC#N)cc3)c21 [Compound Z6742]
[13]
  1-BDC: 0.31
[2]
  1-BDC (PanDDA): 0.31
[14]
  Modeled?: TRUE
Crystal soaking of Mac1
  Refined occupancy: 62

## Cc1oc(C(N)=O)cc1S(=O)(=O)Nc1cnc(Cl)c(C#N)c1 [Compound Z6746]
[13]
  1-BDC: 0.16
[2]
  1-BDC (PanDDA): 0.16
[14]
  Modeled?: TRUE
Crystal soaking of Mac1
  Refined occupancy: 32

## c1csc(CC2CCN(c3ncnc4[nH]ccc34)C2)n1 (centres unmarked) [Compound Z6891]
[11]
  1-BDC: 0.3
[2]
  1-BDC: 0.3
[12]
  PanDDA hit?: TRUE
[17]
  Modeled?: TRUE
Crystal soaking of Mac1
  Refined occupancy: 60

## Cc1oc(=O)oc1CSc1ncnc2[nH]cnc12 [Compound Z7450]
[11]
  1-BDC: 0.23
[2]
  1-BDC: 0.23
[12]
  PanDDA hit?: TRUE
[17]
  Modeled?: TRUE
Crystal soaking of Mac1
  Refined occupancy: 25

## O=C(O)c1ccc(F)c(CNC(=O)c2ccc3[nH]ccc3c2)c1 [Compound Z7647]
[2]
  1-BDC (PanDDA): 0.09
[5]
  1-BDC: 0.09
[6]
  PanDDA hit?: TRUE
[7]
  Modeled?: TRUE
Crystal soaking of Mac1
  Refined occupancy: 18

## OCc1cn(C2CCCN(c3ncnc4[nH]ccc34)C2)nn1 (centres unmarked) [Compound Z7864]
[11]
  1-BDC: 0.05
[2]
  1-BDC: 0.05
[12]
  PanDDA hit?: TRUE
[17]
  Modeled?: TRUE
Crystal soaking of Mac1
  Refined occupancy: 10

## O=C(NC1c2cccc(O)c2CC1C(=O)O)c1ccc(Nc2cccnc2)cc1 (centres unmarked) [Compound Z8539_0018]
[2]
  1-BDC (PanDDA): 0.1
[18]
  Modeled?: TRUE
Crystal soaking of Mac1
  Refined occupancy: 20

## O=C(Nc1ccc(C(=O)NC2c3cccc(O)c3CC2C(=O)O)cn1)NC1CC1 (centres unmarked) [Compound Z8539_0054]
[2]
  1-BDC: 0.14
[18]
  Modeled?: TRUE
Crystal soaking of Mac1
  Refined occupancy: 28

## Cc1nc(Cn2cnc3c(N)nc(N)nc32)cs1 [Compound Z8569]
[8]
  1-BDC: 0.4
[2]
  1-BDC: 0.4
[10]
  PanDDA hit?: TRUE
[19]
  Modeled?: TRUE
Crystal soaking of Mac1
  Refined occupancy: 80

## Nc1nc(N)c2ncn(Cc3csc(Cl)n3)c2n1 [Compound Z8572]
[2]
  1-BDC: 0.44
Ligand modeled in structure, crystal soak, Compound_concentration 100 mM
  Modeled?: TRUE
Crystal soaking of Mac1
  Refined occupancy: 88

## Nc1nc(N)c2ncn(Cc3csc(C4CC4)n3)c2n1 [Compound Z8585]
[8]
  1-BDC: 0.18
[9]
  1-BDC: 0.4
[2]
  1-BDC: 0.18
[10]
  PanDDA hit?: TRUE
[19]
  Modeled?: TRUE
Crystal soaking of Mac1
  Refined occupancy: 36

## CO[C@@H]1CN(c2ncnc3[nH]c4cc(F)ccc4c23)C[C@@H](CO)O1 [Compound Z8973]
[15]
  1-BDC: 0.25
[1]
  1-BDC: 0.23
[2]
  1-BDC (PanDDA): 0.23
[5]
  1-BDC: 0.23
[3]
  PanDDA hit?: TRUE
[6]
  PanDDA hit?: TRUE
[16]
  PanDDA hit?: TRUE
[7]
  Modeled?: TRUE
Crystal soaking of Mac1
  Refined occupancy: 60

## O=C(Nc1ccc(C(=O)N[C@H]2c3cccc(O)c3C[C@H]2C(=O)O)cc1)NC1CC1 [Compound Z9050]
[1]
  1-BDC: 0.21 and 0.27
[2]
  1-BDC (PanDDA): 0.27
[3]
  PanDDA hit?: TRUE
[4]
  Modeled?: TRUE
Crystal soaking of Mac1
  Refined occupancy: 54

Reference: article PMC9926234, “Iterative computational design and crystallographic screening identifies potent inhibitors targeting the Nsp3 macrodomain of SARS-CoV-2” (Proceedings of the National Academy of Sciences of the …, 2023)
